One assay addresses Integrin alpha-V/beta-1 (Homo sapiens, UniProt P05556+P06756). Briefly: Binding affinity towards alpha V-beta1 receptor expressed in HEK293 cells. The format is cell-based.
For assay [1], the target named is T1, Integrin alpha-V/beta-3 (Homo sapiens, UniProt P05106+P06756). Briefly: Binding affinity towards alpha V-beta3 receptor expressed in HEK293 cells. The class given is cell-based.
For another assay, the target named is Integrin alpha-V/beta-5 (Homo sapiens, UniProt P06756+P18084). Briefly: Binding affinity towards alpha V-beta5 receptor expressed in HEK293 cells. The class given is cell-based.
Chain of Integrin alpha-V/beta-5 (P06756 31-889 limits assumed): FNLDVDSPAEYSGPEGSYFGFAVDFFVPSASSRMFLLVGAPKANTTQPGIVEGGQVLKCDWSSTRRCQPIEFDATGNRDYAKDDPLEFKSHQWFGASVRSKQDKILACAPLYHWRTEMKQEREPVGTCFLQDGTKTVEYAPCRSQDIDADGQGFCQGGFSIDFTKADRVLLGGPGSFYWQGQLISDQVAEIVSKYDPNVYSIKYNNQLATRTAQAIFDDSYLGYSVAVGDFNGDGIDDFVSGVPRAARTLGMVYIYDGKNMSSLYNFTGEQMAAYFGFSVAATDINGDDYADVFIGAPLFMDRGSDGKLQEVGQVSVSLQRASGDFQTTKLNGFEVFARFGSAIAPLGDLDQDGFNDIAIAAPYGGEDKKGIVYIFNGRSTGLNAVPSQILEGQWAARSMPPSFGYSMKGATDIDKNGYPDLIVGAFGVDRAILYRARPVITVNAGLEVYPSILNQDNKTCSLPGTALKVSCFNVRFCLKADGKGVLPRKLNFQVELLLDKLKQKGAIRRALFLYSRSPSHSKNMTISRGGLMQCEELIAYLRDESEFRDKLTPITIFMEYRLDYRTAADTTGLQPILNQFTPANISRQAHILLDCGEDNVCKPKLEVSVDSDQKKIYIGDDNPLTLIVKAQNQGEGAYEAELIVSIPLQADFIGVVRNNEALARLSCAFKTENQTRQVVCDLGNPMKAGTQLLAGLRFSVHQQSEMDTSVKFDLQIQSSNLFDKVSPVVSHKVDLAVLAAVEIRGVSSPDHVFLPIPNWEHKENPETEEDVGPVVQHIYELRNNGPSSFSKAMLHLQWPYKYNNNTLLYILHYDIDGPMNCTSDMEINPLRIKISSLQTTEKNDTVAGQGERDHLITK
Chain of Integrin alpha-V/beta-5 (P06756 891-1048 limits assumed): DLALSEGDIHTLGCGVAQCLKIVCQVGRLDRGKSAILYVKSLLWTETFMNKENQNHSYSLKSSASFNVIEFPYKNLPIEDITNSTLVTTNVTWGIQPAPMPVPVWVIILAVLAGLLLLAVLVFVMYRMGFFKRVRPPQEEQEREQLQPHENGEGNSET
Chain of Integrin alpha-V/beta-5 (P18084 24-799 limits assumed): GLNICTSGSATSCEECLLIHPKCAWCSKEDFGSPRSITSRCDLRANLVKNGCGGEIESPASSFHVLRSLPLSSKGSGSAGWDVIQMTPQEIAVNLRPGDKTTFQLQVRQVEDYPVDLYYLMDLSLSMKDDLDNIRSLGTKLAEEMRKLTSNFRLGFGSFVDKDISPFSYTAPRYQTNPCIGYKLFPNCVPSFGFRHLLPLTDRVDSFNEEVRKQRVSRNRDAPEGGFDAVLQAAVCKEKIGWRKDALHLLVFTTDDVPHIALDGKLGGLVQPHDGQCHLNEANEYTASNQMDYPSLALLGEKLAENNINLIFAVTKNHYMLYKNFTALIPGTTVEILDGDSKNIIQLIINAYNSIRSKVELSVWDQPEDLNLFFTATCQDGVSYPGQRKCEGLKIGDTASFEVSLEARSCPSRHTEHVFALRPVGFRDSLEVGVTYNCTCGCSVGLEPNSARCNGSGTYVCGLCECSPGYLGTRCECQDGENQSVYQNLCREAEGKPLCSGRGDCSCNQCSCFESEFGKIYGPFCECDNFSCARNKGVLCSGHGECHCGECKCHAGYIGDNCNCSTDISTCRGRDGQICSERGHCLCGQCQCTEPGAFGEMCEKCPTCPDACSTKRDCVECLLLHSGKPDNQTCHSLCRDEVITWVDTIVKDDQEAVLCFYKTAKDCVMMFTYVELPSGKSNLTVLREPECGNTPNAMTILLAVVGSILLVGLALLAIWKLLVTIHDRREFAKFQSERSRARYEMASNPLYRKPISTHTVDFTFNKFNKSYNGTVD
Assay [2] has as its target T1, Integrin alpha-V/beta-3. Briefly: Binding affinity towards alpha V/beta3 receptor by solid-phase receptor binding assays (SPRA). The class given is protein-complex assay.
The target of assay [3] is Integrin alpha-IIb/beta-3 (Homo sapiens, UniProt P05106+P08514). Briefly: Binding affinity towards alpha IIb/beta3 integrin by solid-phase receptor binding assay (SPRA). The format is protein-complex assay.
Chain of Integrin alpha-IIb/beta-3 (P05106 27-788 limits assumed): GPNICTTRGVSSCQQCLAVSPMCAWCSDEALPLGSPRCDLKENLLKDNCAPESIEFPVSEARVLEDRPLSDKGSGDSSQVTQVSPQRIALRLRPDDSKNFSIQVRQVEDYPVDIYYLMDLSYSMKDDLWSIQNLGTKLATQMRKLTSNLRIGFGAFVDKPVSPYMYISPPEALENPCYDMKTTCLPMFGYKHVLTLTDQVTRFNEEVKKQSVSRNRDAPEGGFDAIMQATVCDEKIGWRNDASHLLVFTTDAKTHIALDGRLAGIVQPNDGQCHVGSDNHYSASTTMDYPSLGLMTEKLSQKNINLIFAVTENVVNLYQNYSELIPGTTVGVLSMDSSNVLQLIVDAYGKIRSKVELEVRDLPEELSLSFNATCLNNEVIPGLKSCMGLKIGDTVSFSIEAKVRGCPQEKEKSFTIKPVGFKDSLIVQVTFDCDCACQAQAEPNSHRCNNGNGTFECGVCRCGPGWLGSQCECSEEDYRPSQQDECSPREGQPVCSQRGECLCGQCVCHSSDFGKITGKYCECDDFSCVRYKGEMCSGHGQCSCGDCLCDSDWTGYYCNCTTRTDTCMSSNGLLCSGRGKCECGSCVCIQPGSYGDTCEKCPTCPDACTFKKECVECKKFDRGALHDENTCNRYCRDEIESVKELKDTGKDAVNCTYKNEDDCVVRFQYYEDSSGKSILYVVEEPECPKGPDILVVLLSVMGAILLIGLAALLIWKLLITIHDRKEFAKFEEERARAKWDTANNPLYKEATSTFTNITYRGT
Chain of Integrin alpha-IIb/beta-3 (P08514 32-887 limits assumed): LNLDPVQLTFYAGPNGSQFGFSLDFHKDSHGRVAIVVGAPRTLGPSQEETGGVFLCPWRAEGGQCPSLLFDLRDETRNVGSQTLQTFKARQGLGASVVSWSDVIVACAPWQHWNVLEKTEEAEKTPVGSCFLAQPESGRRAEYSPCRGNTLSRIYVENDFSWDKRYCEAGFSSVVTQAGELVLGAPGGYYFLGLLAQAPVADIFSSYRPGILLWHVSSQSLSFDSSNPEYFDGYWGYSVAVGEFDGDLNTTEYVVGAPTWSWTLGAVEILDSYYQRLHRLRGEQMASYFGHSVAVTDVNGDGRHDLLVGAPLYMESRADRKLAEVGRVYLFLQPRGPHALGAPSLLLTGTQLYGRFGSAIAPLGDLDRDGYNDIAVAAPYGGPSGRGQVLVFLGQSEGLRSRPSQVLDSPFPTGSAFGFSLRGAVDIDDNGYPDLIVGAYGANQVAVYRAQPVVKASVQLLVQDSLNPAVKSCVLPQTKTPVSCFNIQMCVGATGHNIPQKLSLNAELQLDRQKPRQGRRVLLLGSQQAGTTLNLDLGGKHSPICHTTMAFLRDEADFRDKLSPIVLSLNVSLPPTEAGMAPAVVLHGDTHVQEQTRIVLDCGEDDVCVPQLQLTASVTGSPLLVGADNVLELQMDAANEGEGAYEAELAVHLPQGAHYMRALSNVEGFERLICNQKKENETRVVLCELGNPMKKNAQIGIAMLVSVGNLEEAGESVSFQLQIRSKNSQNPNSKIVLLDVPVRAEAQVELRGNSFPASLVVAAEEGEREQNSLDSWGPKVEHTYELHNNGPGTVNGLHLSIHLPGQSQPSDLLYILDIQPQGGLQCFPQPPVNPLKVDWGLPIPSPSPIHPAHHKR
Chain of Integrin alpha-IIb/beta-3 (P08514 891-1039 limits assumed): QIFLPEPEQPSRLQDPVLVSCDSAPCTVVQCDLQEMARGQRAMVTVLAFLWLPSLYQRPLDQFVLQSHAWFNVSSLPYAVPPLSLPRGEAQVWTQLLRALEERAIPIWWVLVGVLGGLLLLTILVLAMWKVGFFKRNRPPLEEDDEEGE

T1 sequence (P05106 27-788 limits assumed): as the sequence (P05106 27-788 limits assumed) above
T1 sequence (P06756 31-889 limits assumed): as the sequence (P06756 31-889 limits assumed) above
T1 sequence (P06756 891-1048 limits assumed): as the sequence (P06756 891-1048 limits assumed) above
Chain of Integrin alpha-V/beta-1 (P05556 21-798 limits assumed): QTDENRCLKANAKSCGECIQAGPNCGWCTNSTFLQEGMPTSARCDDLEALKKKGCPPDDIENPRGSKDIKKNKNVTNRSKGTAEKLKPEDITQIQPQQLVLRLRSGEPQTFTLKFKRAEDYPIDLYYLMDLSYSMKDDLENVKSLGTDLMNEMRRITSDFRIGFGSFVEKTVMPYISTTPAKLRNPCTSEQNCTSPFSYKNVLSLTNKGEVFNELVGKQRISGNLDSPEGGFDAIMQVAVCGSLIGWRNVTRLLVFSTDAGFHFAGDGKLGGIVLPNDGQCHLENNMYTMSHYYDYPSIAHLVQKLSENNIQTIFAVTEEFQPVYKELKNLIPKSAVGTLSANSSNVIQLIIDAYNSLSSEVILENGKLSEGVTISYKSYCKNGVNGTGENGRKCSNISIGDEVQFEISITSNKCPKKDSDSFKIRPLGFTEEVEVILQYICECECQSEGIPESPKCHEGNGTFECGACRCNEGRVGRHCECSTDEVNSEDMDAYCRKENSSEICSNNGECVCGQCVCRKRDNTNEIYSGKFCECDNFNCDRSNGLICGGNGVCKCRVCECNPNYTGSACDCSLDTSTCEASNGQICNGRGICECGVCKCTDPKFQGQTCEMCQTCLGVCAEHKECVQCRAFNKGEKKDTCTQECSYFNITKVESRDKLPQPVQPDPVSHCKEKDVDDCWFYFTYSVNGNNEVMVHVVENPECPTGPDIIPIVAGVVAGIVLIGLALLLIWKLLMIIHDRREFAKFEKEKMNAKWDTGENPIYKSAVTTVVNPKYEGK
Chain of Integrin alpha-V/beta-1 (P06756 31-889 limits assumed): as the sequence (P06756 31-889 limits assumed) above
Chain of Integrin alpha-V/beta-1 (P06756 891-1048 limits assumed): as the sequence (P06756 891-1048 limits assumed) above

Turning to `CC(=O)NC(Cc1ccc(NC(=O)c2cccc(N=C(N)N)c2)cc1)C(=O)O` (stereo not drawn), the figures for the concentration for half-maximal inhibition (IC50) on Integrin alpha-V/beta-1, on Integrin alpha-V/beta-3 [1] and at Integrin alpha-V/beta-5 were 0.016 µM, 0.0026 µM and 0.04 µM, respectively.
With `CS(=O)(=O)NC(Cc1ccc(NC(=O)c2cccc(N=C(N)N)c2)cc1)C(=O)O` (stereo not drawn), the figures for the IC50 on Integrin alpha-V/beta-1, at Integrin alpha-V/beta-3 [1] and on Integrin alpha-V/beta-5 were 0.029 µM, 0.00098 µM and 0.0031 µM, respectively.
Consider `COc1cc(NC(=O)c2cccc(N=C(N)N)c2)ccc1OCC(=O)O`, for which the IC50 on Integrin alpha-V/beta-1 came to 0.222 µM; at Integrin alpha-V/beta-3 [1], 0.0043 µM; at Integrin alpha-V/beta-3 [2], 0.0032 µM; on Integrin alpha-V/beta-5 it was 0.102 µM.
`O=C(O)/C=C/c1ccc(NC(=O)c2cccc(NC3=NCCCN3)c2)cc1Cl`: the IC50 worked out at 0.507 µM at Integrin alpha-V/beta-1; 0.0038 µM at Integrin alpha-V/beta-3 [1]; 0.0039 µM at Integrin alpha-V/beta-3 [2]; 0.026 µM on Integrin alpha-V/beta-5; 0.641 µM in assay [3].
On to `N=C(N)Nc1cccc(C(=O)Nc2ccc(C3CC3C(=O)O)cc2)c1` (stereo not drawn), for which the IC50 at Integrin alpha-V/beta-1 is 0.339 µM; at Integrin alpha-V/beta-3 [1] it was 0.065 µM; at Integrin alpha-V/beta-3 [2] it was 0.031 µM; at Integrin alpha-V/beta-5 it was 0.149 µM.
Regarding `Cc1cc(NC(=O)c2cccc(NC(=N)N)c2)ccc1/C=C/C(=O)O`, the IC50 at Integrin alpha-V/beta-1 turned out to be 0.505 µM; on Integrin alpha-V/beta-3 [1], 0.0194 µM; on Integrin alpha-V/beta-5, 0.049 µM.
`COc1cc(NC(=O)c2cccc(NC3=NCCCN3)c2)ccc1/C=C/C(=O)O`: the concentration for half-maximal inhibition (IC50) at Integrin alpha-V/beta-3 [2] was found to be 0.0022 µM; in assay [3] it was 0.661 µM.
Molecule `N=C(N)Nc1cccc(C(=O)Nc2cc(Cl)c(/C=C/C(=O)O)c(Cl)c2)c1` gave an IC50 in assay [3] of 25 µM.
At Integrin alpha-V/beta-3 [2], `CCc1cc(/C=C/C(=O)O)ccc1NC(=O)c1cccc(NC(=N)N)c1` returned an IC50 of 0.003 µM.
In the case of `O=C(Nc1ccc(CC(NS(=O)(=O)c2ccccc2)C(=O)O)cc1)c1cccc(NC2=NCCCN2)c1` (stereo not drawn), the concentration for half-maximal inhibition (IC50) came to 0.0104 µM on Integrin alpha-V/beta-1; 0.00012 µM at Integrin alpha-V/beta-3 [1]; 0.00011 µM on Integrin alpha-V/beta-3 [2]; 0.00096 µM at Integrin alpha-V/beta-5; 0.006 µM in assay [3].
Regarding `O=C(O)CCc1ccc(NC(=O)c2cccc(NC3=NCCCN3)c2)cc1C(=O)O`, on Integrin alpha-V/beta-3 [2], the IC50 came to 0.0061 µM.
As for `O=C(O)/C=C/c1ccc(NC(=O)c2cccc(NC3=NCCCN3)c2)c(Cl)c1`, the 50% inhibitory concentration (IC50) was 0.085 µM on Integrin alpha-V/beta-1, 0.0017 µM at Integrin alpha-V/beta-3 [1] and 0.013 µM on Integrin alpha-V/beta-5.
With `O=C(Nc1ccc(C2CC2C(=O)O)cc1)c1cccc(NC2=NCCCN2)c1` (stereo not drawn), the half-maximal inhibitory concentration (IC50) on Integrin alpha-V/beta-1 worked out at 0.32 µM; at Integrin alpha-V/beta-3 [1] it was 0.04 µM; at Integrin alpha-V/beta-5 it was 0.069 µM.
As for `COc1cc(/C=C/C(=O)O)ccc1NC(=O)c1cccc(NC(=N)N)c1`, the half-maximal inhibitory concentration (IC50) came to 0.0103 µM at Integrin alpha-V/beta-3 [2] and 0.038 µM in assay [3].
`COc1cc(NC(=O)c2cccc(NC3=NCCCN3)c2)ccc1OCC(=O)O`: the IC50 was 0.082 µM at Integrin alpha-V/beta-1, 0.0017 µM on Integrin alpha-V/beta-3 [1], 0.00043 µM on Integrin alpha-V/beta-3 [2] and 0.029 µM at Integrin alpha-V/beta-5.
`N=C(N)Nc1cccc(C(=O)Nc2ccc(/C=C/C(=O)O)c(C(=O)O)c2)c1` came in with an IC50 at Integrin alpha-V/beta-3 [2] of 0.0012 µM. In other words, the single-digit nanomolar range.
As to `Cc1cc(/C=C/C(=O)O)ccc1NC(=O)c1cccc(NC2=NCCCN2)c1`, the figures for the 50% inhibitory concentration (IC50) at Integrin alpha-V/beta-1, at Integrin alpha-V/beta-3 [1] and on Integrin alpha-V/beta-5 were 0.06 µM, 0.0017 µM and 0.0096 µM, respectively.
In the case of `N=C(N)Nc1cccc(C(=O)Nc2ccc(/C=C/C(=O)O)cc2F)c1`, the IC50 at Integrin alpha-V/beta-1 worked out at 0.426 µM; on Integrin alpha-V/beta-3 [1] it was 0.0096 µM; on Integrin alpha-V/beta-5, 0.045 µM.
In the case of `N=C(N)Nc1cccc(C(=O)Nc2ccc(OCC(=O)O)cc2)c1`, the 50% inhibitory concentration (IC50) on Integrin alpha-V/beta-1 was found to be 0.351 µM; on Integrin alpha-V/beta-3 [1], 0.0119 µM; on Integrin alpha-V/beta-5, 0.144 µM.
For `O=C(Nc1ccc(CC(NS(=O)(=O)c2ccccc2)C(=O)O)cc1)c1cccc(NC2=NCCN2)c1` (stereo not drawn), the 50% inhibitory concentration (IC50) on Integrin alpha-V/beta-3 [2] came to 0.00027 µM; in assay [3] it was 0.0125 µM.
For `N=C(N)Nc1cccc(C(=O)Nc2ccc(/C=C/C(=O)O)c(Cl)c2)c1`, in that order: 0.023 µM and 0.045 µM.
Take `COc1cc(NC(=O)c2cccc(NC3=NCCCN3)c2)ccc1CC(NC(=O)OC(C)C)C(=O)O` (stereo not drawn): the IC50 at Integrin alpha-V/beta-1 is 0.00068 µM; at Integrin alpha-V/beta-3 [1], 0.00035 µM; on Integrin alpha-V/beta-3 [2] it was 0.00016 µM; on Integrin alpha-V/beta-5, 0.00041 µM; in assay [3], 1 µM.
For `CC(C)OC(=O)NC(Cc1ccc(NC(=O)c2cccc(NC3=NC(=O)CN3)c2)cc1)C(=O)O` (stereo not drawn), the IC50 was found to be 0.0177 µM at Integrin alpha-V/beta-1, 0.00094 µM on Integrin alpha-V/beta-3 [1] and 0.00089 µM at Integrin alpha-V/beta-5.
Take `Cc1cc(/C=C/C(=O)O)cc(C)c1NC(=O)c1cccc(NC2=NCCN2)c1`: the half-maximal inhibitory concentration (IC50) on Integrin alpha-V/beta-1 came to 0.264 µM; on Integrin alpha-V/beta-3 [1], 0.003 µM; at Integrin alpha-V/beta-5 it was 0.029 µM.
In the case of `CC(C)OC(=O)NC(Cc1ccc(NC(=O)c2cccc(N=C(N)N)c2)cc1)C(=O)O` (stereo not drawn), the IC50 on Integrin alpha-V/beta-1 turned out to be 0.00047 µM; at Integrin alpha-V/beta-3 [1] it was 0.0026 µM; on Integrin alpha-V/beta-5, 0.00076 µM; in assay [3] it was 0.022 µM.
Regarding `COc1cc(NC(=O)c2cccc(NC3=NCCCN3)c2)ccc1CCC(=O)O`, the IC50 on Integrin alpha-V/beta-1 is 0.162 µM; at Integrin alpha-V/beta-3 [1] it was 0.0056 µM; at Integrin alpha-V/beta-3 [2] it was 0.0058 µM; on Integrin alpha-V/beta-5, 0.0166 µM.
`NC(N)=Nc1cccc(C(=O)Nc2ccc(CCC(=O)O)cc2)c1`: the IC50 came to 0.758 µM on Integrin alpha-V/beta-1, 0.0109 µM on Integrin alpha-V/beta-3 [1] and 0.135 µM on Integrin alpha-V/beta-5.
As for `COc1cc(NC(=O)c2cccc(NC(=N)N)c2)ccc1CC(NC(=O)OC(C)C)C(=O)O` (stereo not drawn), the IC50 on Integrin alpha-V/beta-1 is 0.0011 µM; at Integrin alpha-V/beta-3 [1] it was 0.00032 µM; at Integrin alpha-V/beta-3 [2] it was 0.0011 µM; at Integrin alpha-V/beta-5, 0.00038 µM.
With `N=C(N)Nc1cccc(C(=O)Nc2ccc(CC(NS(=O)(=O)c3ccccc3)C(=O)O)cc2)c1` (stereo not drawn), the IC50 on Integrin alpha-V/beta-1 is 0.0183 µM; on Integrin alpha-V/beta-3 [1] it was 0.0002 µM; on Integrin alpha-V/beta-5, 0.0081 µM.
`N=C(N)Nc1cccc(C(=O)Nc2ccc(/C=C/C(=O)O)cc2)c1`: the half-inhibitory concentration (IC50) was 0.109 µM at Integrin alpha-V/beta-1, 0.0131 µM at Integrin alpha-V/beta-3 [1] and 0.039 µM at Integrin alpha-V/beta-5.
The like results for `N=C(N)Nc1cccc(C(=O)Nc2ccc(/C=C/C(=O)O)cc2Cl)c1` were, in that order, 0.426 µM, 0.0059 µM and 0.06 µM.
Turning to `CC(C)(C)OC(=O)NC(Cc1ccc(NC(=O)c2cccc(N=C(N)N)c2)cc1)C(=O)O` (stereo not drawn), the half-maximal inhibitory concentration (IC50) came to 0.0067 µM on Integrin alpha-V/beta-1, 0.0025 µM at Integrin alpha-V/beta-3 [1] and 0.001 µM at Integrin alpha-V/beta-5.
Take `CC(C)(C)NC(=O)NC(Cc1ccc(NC(=O)c2cccc(N=C(N)N)c2)cc1)C(=O)O` (stereo not drawn): the IC50 at Integrin alpha-V/beta-1 is 0.0048 µM; on Integrin alpha-V/beta-3 [1], 0.0029 µM; at Integrin alpha-V/beta-3 [2], 0.0032 µM; at Integrin alpha-V/beta-5, 0.003 µM.
Consider `Cc1cc(/C=C/C(=O)O)cc(C)c1NC(=O)c1cccc(NC(=N)N)c1`, for which the IC50 on Integrin alpha-V/beta-1 was 2.07 µM; at Integrin alpha-V/beta-3 [1], 0.021 µM; on Integrin alpha-V/beta-5 it was 0.116 µM.
For `O=C(O)/C=C/c1ccc(NC(=O)c2cccc(NC3=NCCCN3)c2)cc1`, the half-maximal inhibitory concentration (IC50) at Integrin alpha-V/beta-1 was found to be 0.219 µM; at Integrin alpha-V/beta-3 [1], 0.0018 µM; at Integrin alpha-V/beta-3 [2] it was 0.002 µM; at Integrin alpha-V/beta-5, 0.0076 µM; in assay [3], 0.528 µM.

The term IC50 denotes the point on the concentration scale where inhibition reaches its midpoint. A low value points to greater potency.

The record behind these values is ChEMBL document CHEMBL1147627, “Synthesis of cinnamic acids and related isosteres as potent and selective alpha v beta 3 receptor antagonists” (Bioorg Med Chem Lett, 2004).
